In patent publication US8785457B2 (Cellzome Limited, priority 2009, dated 2014) one finds IC50 data, which are given here for 19 compounds.

The structures appear in SMILES notation. pIC50: −log10 of the molar value. Read-outs that look alike come from different tables or passages of the source.

Assay [1] deals with T1, mTOR (Homo sapiens, UniProt P42345).
T1 construct: endogenous in cells; host or cells: Jurkat, clone E6-1 (ATCC TIB-152) cell lysate
Put plainly: mTOR kinobeads assay (competitive binding in Jurkat cell lysate, immunodetection). In a few lines: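 IC50 derived from dose-response curves of mTOR captured on immobilized phenylmorpholin-chromen beads, detected by antibody dot blot with infrared fluorescence.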

Assay [2] deals with T2, DNA-dependent protein kinase (DNA-PK) (Homo sapiens, UniProt P78527).
T2 construct: endogenous in cells; host or cells: Jurkat, clone E6-1 (ATCC TIB-152) cell lysate
T2 sequence (P78527 whole entry): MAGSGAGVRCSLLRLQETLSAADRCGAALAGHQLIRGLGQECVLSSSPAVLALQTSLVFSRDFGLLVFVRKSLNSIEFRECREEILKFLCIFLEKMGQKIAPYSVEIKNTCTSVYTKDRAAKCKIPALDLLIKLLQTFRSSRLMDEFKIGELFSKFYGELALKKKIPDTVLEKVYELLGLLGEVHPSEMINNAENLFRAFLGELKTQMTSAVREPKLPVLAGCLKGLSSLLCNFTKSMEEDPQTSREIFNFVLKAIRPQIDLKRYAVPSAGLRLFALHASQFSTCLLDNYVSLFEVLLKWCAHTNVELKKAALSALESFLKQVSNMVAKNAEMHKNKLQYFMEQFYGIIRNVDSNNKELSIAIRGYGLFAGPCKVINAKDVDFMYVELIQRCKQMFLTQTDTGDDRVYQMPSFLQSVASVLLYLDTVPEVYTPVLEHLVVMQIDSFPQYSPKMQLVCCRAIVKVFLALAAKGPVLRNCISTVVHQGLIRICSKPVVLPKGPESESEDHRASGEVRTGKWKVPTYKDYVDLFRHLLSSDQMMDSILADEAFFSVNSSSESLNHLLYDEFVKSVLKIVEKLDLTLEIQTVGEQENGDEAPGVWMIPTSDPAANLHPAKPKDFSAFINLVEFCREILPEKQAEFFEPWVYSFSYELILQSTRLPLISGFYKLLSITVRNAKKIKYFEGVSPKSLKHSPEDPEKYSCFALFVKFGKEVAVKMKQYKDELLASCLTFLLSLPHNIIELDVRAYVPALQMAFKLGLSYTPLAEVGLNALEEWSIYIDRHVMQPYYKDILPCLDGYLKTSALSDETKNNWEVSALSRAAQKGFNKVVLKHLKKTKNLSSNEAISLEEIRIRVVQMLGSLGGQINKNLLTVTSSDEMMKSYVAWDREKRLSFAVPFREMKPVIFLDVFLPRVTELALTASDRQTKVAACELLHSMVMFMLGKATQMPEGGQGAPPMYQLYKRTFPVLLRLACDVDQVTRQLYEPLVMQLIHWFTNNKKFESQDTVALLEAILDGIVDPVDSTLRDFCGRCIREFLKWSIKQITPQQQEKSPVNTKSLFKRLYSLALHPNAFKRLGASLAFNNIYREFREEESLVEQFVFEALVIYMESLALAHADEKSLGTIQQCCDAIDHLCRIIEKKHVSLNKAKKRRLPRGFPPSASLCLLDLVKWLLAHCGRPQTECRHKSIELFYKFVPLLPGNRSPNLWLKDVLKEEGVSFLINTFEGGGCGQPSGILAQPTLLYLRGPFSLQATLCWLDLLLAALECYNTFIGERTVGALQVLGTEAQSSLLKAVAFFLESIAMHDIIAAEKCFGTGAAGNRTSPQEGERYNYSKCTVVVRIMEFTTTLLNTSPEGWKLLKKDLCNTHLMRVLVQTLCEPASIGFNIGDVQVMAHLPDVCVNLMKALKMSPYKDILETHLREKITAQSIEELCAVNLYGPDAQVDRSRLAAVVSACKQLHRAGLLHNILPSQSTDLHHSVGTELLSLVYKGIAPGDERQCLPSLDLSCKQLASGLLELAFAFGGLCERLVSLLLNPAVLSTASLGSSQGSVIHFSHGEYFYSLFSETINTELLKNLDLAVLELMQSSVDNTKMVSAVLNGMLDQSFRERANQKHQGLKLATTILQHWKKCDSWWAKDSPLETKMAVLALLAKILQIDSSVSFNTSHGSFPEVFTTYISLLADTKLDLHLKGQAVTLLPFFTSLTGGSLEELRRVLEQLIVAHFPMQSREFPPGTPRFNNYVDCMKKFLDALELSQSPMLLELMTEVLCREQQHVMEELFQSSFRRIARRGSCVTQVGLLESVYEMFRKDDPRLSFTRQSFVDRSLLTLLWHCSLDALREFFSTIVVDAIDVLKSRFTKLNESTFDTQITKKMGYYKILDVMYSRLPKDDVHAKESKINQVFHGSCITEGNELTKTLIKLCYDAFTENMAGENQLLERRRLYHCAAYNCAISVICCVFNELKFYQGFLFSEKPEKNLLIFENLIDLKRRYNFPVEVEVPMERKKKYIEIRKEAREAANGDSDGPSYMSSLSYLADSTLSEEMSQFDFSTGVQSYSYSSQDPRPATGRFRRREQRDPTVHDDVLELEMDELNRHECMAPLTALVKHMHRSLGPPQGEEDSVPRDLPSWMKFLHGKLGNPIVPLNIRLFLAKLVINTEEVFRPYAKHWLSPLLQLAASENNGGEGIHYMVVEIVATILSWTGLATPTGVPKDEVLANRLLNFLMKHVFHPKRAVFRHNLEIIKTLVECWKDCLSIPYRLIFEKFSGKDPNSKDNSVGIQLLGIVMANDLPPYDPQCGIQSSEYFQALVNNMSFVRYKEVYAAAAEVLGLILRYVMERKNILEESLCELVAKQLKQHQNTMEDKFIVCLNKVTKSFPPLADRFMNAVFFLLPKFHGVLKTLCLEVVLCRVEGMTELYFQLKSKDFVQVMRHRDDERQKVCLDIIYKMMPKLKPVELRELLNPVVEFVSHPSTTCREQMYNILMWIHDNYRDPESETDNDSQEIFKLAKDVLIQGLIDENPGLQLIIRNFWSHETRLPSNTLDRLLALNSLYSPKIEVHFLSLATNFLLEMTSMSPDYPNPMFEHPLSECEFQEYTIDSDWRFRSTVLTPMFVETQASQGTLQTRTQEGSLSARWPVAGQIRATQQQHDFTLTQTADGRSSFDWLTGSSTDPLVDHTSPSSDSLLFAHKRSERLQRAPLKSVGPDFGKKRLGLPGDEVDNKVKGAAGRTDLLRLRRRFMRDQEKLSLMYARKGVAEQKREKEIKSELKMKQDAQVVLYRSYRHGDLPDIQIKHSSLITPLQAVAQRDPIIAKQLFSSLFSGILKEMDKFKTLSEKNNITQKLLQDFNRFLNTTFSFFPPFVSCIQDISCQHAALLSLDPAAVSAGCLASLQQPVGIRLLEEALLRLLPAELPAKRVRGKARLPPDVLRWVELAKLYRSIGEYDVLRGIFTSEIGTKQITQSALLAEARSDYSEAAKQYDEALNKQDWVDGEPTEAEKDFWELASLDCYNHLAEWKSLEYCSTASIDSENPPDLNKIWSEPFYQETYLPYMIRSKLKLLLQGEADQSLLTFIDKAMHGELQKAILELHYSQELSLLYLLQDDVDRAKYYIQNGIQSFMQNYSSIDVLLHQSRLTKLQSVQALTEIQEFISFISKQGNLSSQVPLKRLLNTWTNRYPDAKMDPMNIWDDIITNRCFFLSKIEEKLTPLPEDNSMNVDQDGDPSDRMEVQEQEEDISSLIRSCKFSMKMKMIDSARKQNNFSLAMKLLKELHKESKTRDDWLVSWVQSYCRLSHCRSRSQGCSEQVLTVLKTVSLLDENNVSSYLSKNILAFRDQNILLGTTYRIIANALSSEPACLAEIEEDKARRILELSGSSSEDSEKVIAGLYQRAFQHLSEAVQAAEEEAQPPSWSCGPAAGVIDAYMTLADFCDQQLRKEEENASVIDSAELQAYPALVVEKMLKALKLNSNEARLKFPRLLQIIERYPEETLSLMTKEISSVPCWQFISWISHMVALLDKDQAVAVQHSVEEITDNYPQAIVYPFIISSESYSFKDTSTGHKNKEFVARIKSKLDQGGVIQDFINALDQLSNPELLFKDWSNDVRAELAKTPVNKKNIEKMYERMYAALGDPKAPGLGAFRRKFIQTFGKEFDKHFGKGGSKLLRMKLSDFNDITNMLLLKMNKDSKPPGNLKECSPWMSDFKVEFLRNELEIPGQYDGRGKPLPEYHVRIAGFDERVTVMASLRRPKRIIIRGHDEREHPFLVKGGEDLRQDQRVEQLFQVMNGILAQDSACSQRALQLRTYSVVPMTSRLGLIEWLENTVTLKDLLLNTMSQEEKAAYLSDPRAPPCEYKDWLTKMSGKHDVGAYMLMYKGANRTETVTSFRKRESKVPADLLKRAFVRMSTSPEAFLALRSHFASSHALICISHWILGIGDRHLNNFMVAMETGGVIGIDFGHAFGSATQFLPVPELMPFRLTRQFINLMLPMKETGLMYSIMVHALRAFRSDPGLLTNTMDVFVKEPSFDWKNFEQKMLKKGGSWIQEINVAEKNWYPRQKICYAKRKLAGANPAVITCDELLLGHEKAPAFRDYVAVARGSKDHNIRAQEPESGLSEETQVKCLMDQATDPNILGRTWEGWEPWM
Nature of the assay: kinobeads assay, DNA-PK. In kind it is binding. In a few lines:
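Competitive binding in Jurkat cell lysate (5 mg/mL protein) against beads carrying an immobilized phenylmorpholin-chromen ligand, in DP buffer pH 7.4 with NP40, DTT and NaF. Bead-bound kinases were eluted and quantified by antibody dot blot with infrared detection, and IC50 was taken from dose-response curves of a 1:3 dilution series.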

Where [3] appears, read: kinobeads assay, Table 4, read-out: Inhibition values (IC50) mTor.
[4] abbreviates: kinobeads assay, Table 6, read-out: Inhibition values (IC50) mTOR.
Where [5] appears, read: kinobeads assay, Table 4, read-out: Inhibition values (IC50) DNA-PK.
[6] abbreviates: kinobeads assay, Table 6, read-out: Inhibition values (IC50) DNAPK.
Where [7] appears, read: Further Kinobeads Data, read-out: mTor.
Where [8] appears, read: Further Kinobeads Data, read-out: DNAPK.

On to `C[C@H]1COCCN1c1nc(-c2ccc(NC(=O)Nc3ccc(F)cc3)cc2)nc2c1CN(C)C2` [Example 52, (S)-1-(4-fluorophenyl)-3-(4-(6-methyl-4-(3-methylmorpholino)-6,7-dihydro-5H-pyrrolo[3,4-d]pyrimidin-2-yl)phenyl)urea], for which the pIC50 in assay [1] (setting [3]) was 6.00 to 7.00; in assay [1] (setting [4]), 6.00 to 7.00; in assay [2] (setting [5]) it was under 5.00; in assay [2] (setting [6]), under 5.00.

Consider `C[C@H]1COCCN1c1nc(-c2ccc(NC(=O)NC3CCC3)cc2)nc2c1CN(C)C2` [Example 55, (S)-1-cyclobutyl-3-(4-(6-methyl-4-(3-methylmorpholino)-6,7-dihydro-5H-pyrrolo[3,4-d]pyrimidin-2-yl)phenyl)urea], for which the pIC50 in assay [1] (setting [3]) was 6.00 to 7.00; in assay [1] (setting [4]) it was 6.00 to 7.00; in assay [2] (setting [5]) it was under 5.00; in assay [2] (setting [6]) it was under 5.00.

Turning to `CCNC(=O)Nc1ccc(-c2nc3c(c(N4CCOC[C@@H]4C)n2)CCN(C(=O)C2CC2)C3)cc1` [Example 56, (S)-1-(4-(7-(cyclopropanecarbonyl)-4-(3-methylmorpholino)-5,6,7,8-tetrahydropyrido[3,4-d]pyrimidin-2-yl)phenyl)-3-ethylurea], the pIC50 in assay [1] (setting [3]) was over 7.00; in assay [1] (setting [4]), over 7.00; in assay [2] (setting [5]), under 5.00; in assay [2] (setting [6]), under 5.00.

Regarding `CCNC(=O)Nc1ccc(-c2nc3c(c(N4CCOC[C@@H]4C)n2)CCN(C(=O)C(C)C)C3)cc1` [Example 57, (S)-1-ethyl-3-(4-(7-isobutyryl-4-(3-methylmorpholino)-5,6,7,8-tetrahydropyrido[3,4-d]pyrimidin-2-yl)phenyl)urea], the pIC50 in assay [1] (setting [3]) is over 7.00; in assay [1] (setting [4]), over 7.00; in assay [2] (setting [5]), under 5.00; in assay [2] (setting [6]), under 5.00.

As for `CCNC(=O)Nc1cc(F)c(-c2nc3c(c(N4CCOC[C@@H]4C)n2)CN(C(=O)OCC)C3)cc1F` [Example 141, (S)-ethyl 2-(4-(3-ethylureido)-2,5-difluorophenyl)-4-(3-methylmorpholino)-5H-pyrrolo[3,4-d]pyrimidine-6(7H)-carboxylate], the figures for the pIC50 in assay [1] (setting [7]) and in assay [2] (setting [8]) were 5.00 to 6.00 and under 5.00, respectively.

For `COC(=O)N1Cc2nc(-c3ccc(NC(=O)NC4CC4)cc3F)nc(N3CCOC[C@@H]3C)c2C1` [Example 146, (S)-methyl 2-(4-(3-cyclopropylureido)-2-fluorophenyl)-4-(3-methylmorpholino)-5H-pyrrolo[3,4-d]pyrimidine-6(7H)-carboxylate], the pIC50 is 6.00 to 7.00 in assay [1] (setting [7]) and under 5.00 in assay [2] (setting [8]).

`C[C@H]1COCCN1c1nc(-c2ccc(NC(=O)NC3CC3)cc2F)nc2c1CN(C)C2` [Example 147, (S)-1-cyclopropyl-3-(3-fluoro-4-(6-methyl-4-(3-methylmorpholino)-6,7-dihydro-5H-pyrrolo[3,4-d]pyrimidin-2-yl)phenyl)urea]: the pIC50 in assay [1] (setting [7]) is over 7.00; in assay [2] (setting [8]), under 5.00.

For the compound `CCNC(=O)Nc1ccc(-c2nc3c(c(N4CCOCC4)n2)CN(C(=O)OCC)C3)c(F)c1` [Example 151, Ethyl 2-(4-(3-ethylureido)-2-fluorophenyl)-4-morpholino-5H-pyrrolo[3,4-d]pyrimidine-6(7H)-carboxylate], the pIC50 was 6.00 to 7.00 in assay [1] (setting [7]) and under 5.00 in assay [2] (setting [8]).

As to `CCNC(=O)Nc1ccc(-c2nc3c(c(N4CCOC[C@@H]4C)n2)CN(C(=O)OC)C3)c(F)c1` [Example 152, (S)-methyl 2-(4-(3-ethylureido)-2-fluorophenyl)-4-(3-methylmorpholino)-5H-pyrrolo[3,4-d]pyrimidine-6-(7H)-carboxylate], the pIC50 in assay [1] (setting [7]) is 6.00 to 7.00; in assay [2] (setting [8]), under 5.00.

Take `CCNC(=O)Nc1ccc(-c2nc3c(c(N4CCOC[C@@H]4C)n2)CN(C(=O)OC(C)(C)C)C3)c(F)c1` [Example 153, (S)-tert-butyl 2-(4-(3-ethylureido)-2-fluorophenyl)-4-(3-methylmorpholino)-5H-pyrrolo[3,4-d]pyrimidine-6-(7H)-carboxylate]: the pIC50 in assay [1] (setting [7]) is over 7.00; in assay [2] (setting [8]), under 5.00.

As for `CCNC(=O)Nc1ccc(-c2nc3c(c(N4CCOCC4)n2)CN(C)C3)c(F)c1` [Example 154, 1-ethyl-3-(3-fluoro-4-(6-methyl-4-morpholino-6,7-dihydro-5H-pyrrolo[3,4-d]pyrimidin-2-yl)phenyl)urea], the pIC50 is 6.00 to 7.00 in assay [1] (setting [7]) and under 5.00 in assay [2] (setting [8]).

Take `CC(=O)N1Cc2nc(-c3ccc(NC(=O)NC4CC4)cc3F)nc(N3CCOC[C@@H]3C)c2C1` [Example 155, (S)-1-(4-(6-acetyl-4-(3-methylmorpholino)-6,7-dihydro-5H-pyrrolo[3,4-d]pyrimidin-2-yl)-3-fluorophenyl)-3-cyclopropylurea]: the pIC50 in assay [1] (setting [7]) was over 7.00; in assay [2] (setting [8]), under 5.00.

With `CCOC(=O)N1Cc2nc(-c3ccc(NC(=O)NC4CC4)cc3F)nc(N3CCOCC3)c2C1` [Example 156, Ethyl 2-(4-(3-cyclopropylureido)-2-fluorophenyl)-4-morpholino-5H-pyrrolo[3,4-d]pyrimidine-6(7H)-carboxylate], the pIC50 in assay [1] (setting [7]) is over 7.00; in assay [2] (setting [8]), under 5.00.

For `CN1Cc2nc(-c3ccc(NC(=O)NC4CC4)cc3F)nc(N3CCOCC3)c2C1` [Example 159, 1-(Cyclopropyl)-3-(3-fluoro-4-(6-methyl-4-morpholino-6,7-dihydro-5H-pyrrolo[3,4-d]pyrimidin-2-yl)phenyl)urea], the results for the pIC50 in assay [1] (setting [7]) and in assay [2] (setting [8]) were 6.00 to 7.00 and under 5.00, respectively.

As for `CCNC(=O)Nc1ccc(-c2nc3c(c(N4CCOC[C@@H]4C)n2)CN(C)C3)c(F)c1` [Example 160, (S)-1-ethyl-3-(3-fluoro-4-(6-methyl-4-(3-methylmorpholino)-6,7-dihydro-5H-pyrrolo[3,4-d]pyrimidin-2-yl)phenyl)urea], the results for the pIC50 in assay [1] (setting [7]) and in assay [2] (setting [8]) were over 7.00 and under 5.00, respectively.

Turning to `CCNC(=O)Nc1ccc(-c2nc3c(c(N4CCOCC4)n2)CN(C(=O)OC)C3)c(F)c1` [Example 162, methyl 2-(4-(3-ethylureido)-2-fluorophenyl)-4-morpholino-5H-pyrrolo[3,4-d]pyrimidine-6(7H)-carboxylate], the pIC50 in assay [1] (setting [7]) was over 7.00; in assay [2] (setting [8]) it was under 5.00.

`C[C@H]1COCCN1c1nc(-c2ccc(NC(=O)NC3CC3)cc2F)nc2c1CCNC2` [Example 163, (S)-1-cyclopropyl-3-(3-fluoro-4-(4-(3-methylmorpholino)-5,6,7,8-tetrahydropyrido[3,4-d]pyrimidin-2-yl)phenyl)urea]: the pIC50 in assay [1] (setting [7]) is over 7.00; in assay [2] (setting [8]) it was under 5.00.

With `CCNC(=O)Nc1ccc(-c2nc3c(c(N4CCOC[C@@H]4C)n2)CCNC3)c(F)c1` [Example 164, (S)-1-ethyl-3-(3-fluoro-4-(4-(3-methylmorpholino)-5,6,7,8-tetrahydropyrido[3,4-d]pyrimidin-2-yl)phenyl)urea], the pIC50 in assay [1] (setting [7]) is over 7.00; in assay [2] (setting [8]) it was under 5.00.

Consider `C[C@H]1COCCN1c1nc(-c2ccc(NC(=O)NC3CC3)cc2F)nc2c1CCN(C(=O)N(C)C)C2` [Example 165, (S)-2-(4-(3-cyclopropylureido)-2-fluorophenyl)-N,N-dimethyl-4-(3-methylmorpholino)-5,6-dihydropyrido[3,4-d]pyrimidine-7(8H)-carboxamide], for which the pIC50 in assay [1] (setting [7]) is over 7.00; in assay [2] (setting [8]), under 5.00.
